Results as given in patent US11059875B2, “Composition for preventing or treating cardiofaciocutaneous syndrome” (Korea Advanced Institute of Science and Technology, priority 2018, dated 2021).
Entries after “also recorded” stand apart in the source; their conditions may differ. Values belong to the molecule of their own block, whether it stands above or below them.

Experiments:
Assay type in all cases: cell-based, human
[1] = tested on: osteoblasts differentiated from CFC-MSCs; test: ALP enzyme activity (ALP kit staining) in osteoblasts differentiated from CFC-MSCs; conditions: treated on day 1 for 24 hours (U0126 5 μM, SB-431542 5 μM, BMP4 50 ng/ml), measured on 7th day of differentiation, FIG. 13
Method: (§1) To differentiate into osteoblasts, the MSCs were treated with 0.25% trypsin-EDTA at 37° C. for 2 minutes and separated from the culture dish. The cells were spread on a 4-well culture dish at the density of 2.5×10^4 cells/cm^2, which were cultured in MSC culture medium at 37° C. for 3 days until the cells were full. 3 days later, the medium was replaced with STEMPRO osteogenesis differentiation Medium (Invitrogen), and the medium was replaced every three days. The activity of ALP, which is an enzyme essential for the formation of hydroxyapatite, a major component of bone mineral, and an indicator of osteoblast differentiation, was investigated at 7 day intervals by using an ALP kit (Leucocyte Alkaline Phosphatase Kit, Sigma-Aldrich). […] The cells were washed with distilled water twice and the degree of color change into red was measured to investigate the calcium ion deposition.
(§2) Particularly, the differentiation of CFC-MSCs into osteoblasts was induced by the same manner as described in Experimental Example <2-2>. […] ALP enzyme activity was measured on the 7th day of the differentiation, and alizarin red S staining was performed on the 14th day of the differentiation by the same manner as described in Experimental Example <2-2>. […] After washing the cells with distilled water twice, the amount of calcium deposition was evaluated by the degree of darkening.

[2] = tested on: osteoblasts differentiated from CFC-MSCs; test: Bone mineral deposition (alizarin red S and von Kossa staining) in osteoblasts differentiated from CFC-MSCs; conditions: treated on day 1 for 24 hours (U0126 5 μM, SB-431542 5 μM, BMP4 50 ng/ml), alizarin red S day 14, von Kossa day 21, FIG. 14
Method: as §1, §2

[3] = tested on: osteoblasts differentiated from CFC-iPSCs; test: Differentiation of CFC syndrome patient derived iPSCs into osteoblasts through mesenchymal stem cells; conditions: CFC patient iPSC-derived cells; FIG. 13 to FIG. 15
Description: […] The iPSCs derived from wild type (WT) individuals and the iPSCs derived from CFC syndrome patients were induced to be differentiated in vitro for about 30 days by referring to the protocol proposed in a previous paper (Mahmood, Harkness et al. 2010). Particularly, CFC-iPSC colony was divided into 4 to 9 sections (0.5 mm×0.5 mm/each section) by using a tissue chopper provided from Mickle Laboratory Engineering Co. The sections were treated with 10 mg/ml of dispase at 37° C. for 4 minutes and then the sections were detached from the cell culture dish. The separated cell sections were transferred in a Petri dish, followed by culture in EB medium (embryoid body differentiation medium), the Dulbecco's modified Eagle's medium (DMEM/F12) supplemented with 10% serum replacement (SR), 1% penicillin-streptomycin and 1% non-essential amino acids, for a day. […]
To differentiate into osteoblasts, the MSCs were treated with 0.25% trypsin-EDTA at 37° C. for 2 minutes and separated from the culture dish. […] The cells were washed with distilled water twice and the degree of color change into red was measured to investigate the calcium ion deposition. […]

- ALP enzyme activity [1]: increase
Molecule: NC(=O)c1ccc(-c2nc(-c3ccc4c(c3)OCO4)c(-c3ccccn3)[nH]2)cc1 [SB-431542]
- bone mineral deposition [2]: increase
- differentiation ability into osteoblasts [3]: improved; also recorded: efficient in improving the differentiation ability

B1: BMP4: recombinant human bone morphogenic protein 4, BMP signaling pathway activator, SEQ. ID. NO: 13 (R&D systems) (protein, listed as Homo sapiens)
chain: MIPGNRMLMVVLLCQVLLGGASHASLIPETGKKKVAEIQGHAGGRRSGQSHELLRDFEATLLQMFGLRRRPQPSKSAVIPDYMRDLYRLQSGEEEEEQIHSTGLEYPERPASRANTVRSFHHEEHLENIPGTSENSAFRFLFNLSSIPENEVISSAELRLFREQVDQGPDWERGFHRINIYEVMKPPAEVVPGHLITRLLDTRLVHHNVTRWETFDVSPAVLRWTREKQPNYGLAIEVTHLHQTRTHQGQHVRISRSLPQGSGNWAQLRPLLVTFGHDGRGHALTRRRRAKRSPKHHSQRARKKNKNCRRHSLYVDFSDVGWNDWIVAPPGYQAFYCHGDCPFPLADHLNSTNHAIVQTLVNSVNSSIPKACCVPTELSAISMLYLDEYDKVVLKNYQEMVVEGCGCR
- ALP enzyme activity [1]: increase
- bone mineral deposition [2]: increase
- differentiation ability into osteoblasts [3]: efficient in improving the differentiation ability
